Among the data in patent US5248807A, “Triterpene derivatives” (Shionogi & Co., Ltd., priority 1991, dated 1993) are IC50 values, retold here.

In test [1] the test system is endothelin-1-induced increase in cytosolic calcium ion concentration (rat aortic smooth muscle A7r5 cells). Put plainly: Inhibition of the endothelin-1-induced increase in cytosolic calcium ion concentration in A7r5 cells. Format: cell-based. As to conditions: fura-2, 1 min pre-incubation, 10^-8 M endothelin-1, read-out: IC50 (concentration to inhibit the endothelin-1-induced increase in cytosolic calcium ion by 50%). The procedure:
Inhibition of the endothelin-1-induced increase in cytosolic calcium ion concentration
To a cuvette was put the suspension of rat aortic smooth muscle A7r5 cells, obtained from Dainippon Pharmaceutical Co., Ltd., loaded with 2 μM of fura-2 (Dojindo), then the change in fluorescence intensity was determined with a calcium analizer (CAF100, Nippon Bunkou Co.). In the determination,the exciting was performed at 340 nm and 380 nm and the recording at 510 nm. Calculation for the concentration of cytosolic calcium ion was performed according to the method of Grynkiewicz et al. (J.Biol.Chem., 260, P. 3440-3450, 1985). The experiment was performed as follows: at first, the present compounds were added to the cell suspension in the cuvette and the mixture was incubated for 1 min. Then, 10^-8 M of endothelin-1 was added thereto and the change in fluorescence intensity was determined. The concentration of the present compounds to inhibit the endothelin-1-induced increase in cytosolic calcium ion by 50%, (i.e., IC50) is shown at Table 2.

Test [2] concerns the target T1, endothelin-receptor (membrane fraction of the media from porcine aorta) (Sus scrofa, UniProt Q29010).
T1 construct: Membrane fractions were prepared from porcine and rat hearts, rat thoracic aorta, and the media of porcine aorta; from tissue; host or cells: media of porcine aorta, membrane fraction
T1 sequence (Q29010 21-427): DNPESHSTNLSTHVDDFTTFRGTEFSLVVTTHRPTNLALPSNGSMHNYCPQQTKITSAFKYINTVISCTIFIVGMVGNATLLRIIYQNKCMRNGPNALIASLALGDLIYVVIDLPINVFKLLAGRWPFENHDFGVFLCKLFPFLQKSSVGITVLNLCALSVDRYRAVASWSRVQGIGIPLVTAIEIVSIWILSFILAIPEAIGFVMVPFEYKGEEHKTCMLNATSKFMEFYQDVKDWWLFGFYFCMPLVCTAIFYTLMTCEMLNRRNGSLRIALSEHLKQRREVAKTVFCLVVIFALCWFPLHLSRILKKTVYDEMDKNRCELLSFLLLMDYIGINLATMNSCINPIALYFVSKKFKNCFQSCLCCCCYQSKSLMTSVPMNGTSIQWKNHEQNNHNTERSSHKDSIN
Put plainly: Inhibitory effect on the binding of 125I-endothelin-1 to the receptor, media of porcine aorta membrane. As to conditions: 25 pM 125I-endothelin-1, 37° C., 1 hour, read-out: IC50 (concentration to inhibit 50% of the specific binding of 125I-endothelin-1). The procedure:
(§1) Inhibitory Effect on the Binding of ^125 I-Endothelin-1 to the Receptor
(§2) Membrane fractions were prepared from porcine and rat hearts, rat thoracic aorta, and the media of porcine aorta. Each membrane fraction was incubated, in the presence or absence of the present compound 1 with 25 pM of ^125 I-endothelin-1 at 37° C. for 1 hour. After the reaction was completed, ^125 I-endothelin-1 bound to each membrane fraction was separated by rapid filtration through glass fiber filters and its radioactivity was determined with a gamma-counter. The specific binding was calculated by subtracting, from the total binding, the non-specific binding which was determined in the presence of 10^-7 M of non-radioactive endothelin-1. The concentration of the present compound 1 to inhibit 50% of the specific binding (i.e., IC50) is shown at Table 1.

The target of test [3] is T2, endothelin-receptor (membrane fraction of rat aorta) (Rattus norvegicus, UniProt P26684).
T2 construct: Membrane fractions were prepared from porcine and rat hearts, rat thoracic aorta, and the media of porcine aorta; from tissue; host or cells: rat thoracic aorta, membrane fraction
T2 sequence (P26684 21-426): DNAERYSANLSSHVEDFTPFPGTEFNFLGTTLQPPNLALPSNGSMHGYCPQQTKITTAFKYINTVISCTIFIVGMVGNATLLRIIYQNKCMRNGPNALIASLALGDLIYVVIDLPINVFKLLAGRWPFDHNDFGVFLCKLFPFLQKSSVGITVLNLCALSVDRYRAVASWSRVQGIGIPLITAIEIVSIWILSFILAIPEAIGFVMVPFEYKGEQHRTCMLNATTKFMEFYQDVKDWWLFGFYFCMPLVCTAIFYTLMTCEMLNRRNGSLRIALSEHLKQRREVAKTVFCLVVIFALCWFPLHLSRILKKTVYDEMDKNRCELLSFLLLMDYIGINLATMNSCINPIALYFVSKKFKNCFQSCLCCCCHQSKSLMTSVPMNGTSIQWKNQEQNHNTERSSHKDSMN
Description: Inhibitory effect on the binding of 125I-endothelin-1 to the receptor, rat aorta membrane. As to conditions: 25 pM 125I-endothelin-1, 37° C., 1 hour, read-out: IC50 (concentration to inhibit 50% of the specific binding of 125I-endothelin-1). How it is done: as §1, §2

The target in test [4] is T3, endothelin-receptor (membrane fraction of porcine heart) (Sus scrofa, UniProt Q29010).
T3 construct: Membrane fractions were prepared from porcine and rat hearts; from tissue; host or cells: porcine heart, membrane fraction
T3 sequence (Q29010 21-427): T1 sequence (Q29010 21-427)
Description: Inhibitory effect on the binding of 125I-endothelin-1 to the receptor, porcine heart membrane. As to conditions: 25 pM 125I-endothelin-1, 37° C., 1 hour, read-out: IC50 (concentration to inhibit 50% of the specific binding of 125I-endothelin-1). How it is done:
as §1, §2

For `CC1(C)CCC2(C(=O)O)CCC3(COC(=O)C=Cc4cccc(O)c4)C(=CCC4C5(C)CCC(=O)C(C)(C)C5CCC43C)C2C1` (stereo not drawn) [Compound 5], the IC50 in test [1] came out at 11 nM.

Take `CC1(C)CCC2(C(=O)O)CCC3(COC(=O)C=Cc4ccccn4)C(=CCC4C5(C)CCC(=O)C(C)(C)C5CCC43C)C2C1` (stereo not drawn) [Compound 13]: the IC50 in test [1] amounted to 25 nM. For `CC1(C)CCC2(C(=O)O)CCC3(COC(=O)C=Cc4cc(O)cc(O)c4)C(=CCC4C5(C)CCC(=O)C(C)(C)C5CCC43C)C2C1` (stereo not drawn) [Compound 9], the IC50 in test [1] came out at 4.5 nM. As for `CC(=O)Oc1cccc(C=CC(=O)OCC23CCC4(C(=O)O)CCC(C)(C)CC4C2=CCC2C4(C)CCC(=O)C(C)(C)C4CCC23C)c1` (stereo not drawn) [Compound 4], in test [1], the IC50 is 34 nM. Still for that read-out and setting: as for `CC1(C)CCC2(C(=O)O)CCC3(COC(=O)C=Cc4cccc(OS(=O)(=O)O)c4)C(=CCC4C5(C)CCC(=O)C(C)(C)C5CCC43C)C2C1` (stereo not drawn) [Compound 6], the figure is 14 nM; as for `CC(=O)Oc1ccc(C=CC(=O)OCC23CCC4(C(=O)O)CCC(C)(C)CC4C2=CCC2C4(C)CCC(=O)C(C)(C)C4CCC23C)cc1` (stereo not drawn) [Compound 10], 180 nM; as for `CC1(C)CCC2(C(=O)O)CCC3(COC(=O)C=Cc4ccc(O)cc4)C(=CCC4C5(C)CCC(=O)C(C)(C)C5CCC43C)C2C1` (stereo not drawn) [Compound 11], 27 nM.

As for `CC1(C)CCC2(C(=O)O)CCC3(COC(=O)C=Cc4ccccc4)C(=CCC4C5(C)CCC(=O)C(C)(C)C5CCC43C)C2C1` (stereo not drawn) [Compound 3], the IC50 in test [1] amounted to 18 nM. On the same count and under the same terms, the same measure for `CC(=O)Oc1cc(C=CC(=O)OCC23CCC4(C(=O)O)CCC(C)(C)CC4C2=CCC2C4(C)CCC(=O)C(C)(C)C4CCC23C)cc(OC(C)=O)c1` (stereo not drawn) [Compound 8]: 260 nM; for `CC1(C)CCC2(C(=O)O)CCC3(COC(=O)C=Cc4cccc(OC(=O)CCC(=O)O)c4)C(=CCC4C5(C)CCC(=O)C(C)(C)C5CCC43C)C2C1` (stereo not drawn) [Compound 7]: 9 nM; for `CC1(C)CCC2(C(=O)O)CCC3(COC(=O)C=Cc4ccccc4O)C(=CCC4C5(C)CCC(=O)C(C)(C)C5CCC43C)C2C1` (stereo not drawn) [Compound 12]: 27 nM. Consider `CC1(C)CCC2(C(=O)O)CCC3(COC(=O)C=Cc4ccc(O)c(O)c4)C(=CCC4C5(C)CCC(=O)C(C)(C)C5CCC43C)C2C1` (stereo not drawn) [Compound 1], for which the IC50 in test [1] came to 11 nM; in test [2], 32 nM; in test [3], 56 nM; in test [4], 83 nM.
